Measured values from patent US11124488B2, “Preparation of 2-([1,2,3]triazol-2-yl)-benzoic acid derivatives” (IDORSIA PHARMACEUTICALS LTD, priority 2017, dated 2021).

melting point [°C]	SMILES
185	COc1ccc(-n2nccn2)c(C(=O)N2CCC[C@@]2(C)C(=O)Nc2ccc(Cl)c(C)c2N)c1 [Reference Example 4.3, (S)—N-(2-amino-4-chloro-3-methylphenyl)-1-(5-methoxy-2-(2H-1,2,3-triazol-2-yl)benzoyl)-2 methylpyrrolidine-2-carboxamide]
178	COc1ccc(-n2nccn2)c(C(=O)N2CCC[C@@]2(C)C(=O)O)c1 [Reference Example 4.2, (S)-1-(5-methoxy-2-(2H-1,2,3-triazol-2-yl)benzoyl)-2-methylpyrrolidine-2-carboxylic acid]
